Measurements taken from ChEMBL document CHEMBL1129131, “Identification and structure-activity relationship studies of osthol, a cytotoxic principle from Cnidium monnieri” (Bioorg Med Chem Lett, 1996).
Values after ≈ are worked out from the molar mass of the structure shown.

Columns and labels:
Assay type in all cases: functional, cell-based
V79 = experiment: Cytotoxicity against V-79 cells; details: Cricetulus griseus
KB = experiment: Compound was tested for its cytotoxicity against KB cells; details: Homo sapiens
P388 = experiment: Compound was tested for its cytotoxicity against P-388 cells; details: Mus musculus
MM46 = experiment: Compound was tested for its cytotoxicity against MM46 cells; details: Mus musculus

COc1ccc2c(c1CCC(C)C)OC(=O)CC2
IC50 (V79): > 100 µM

COc1ccc2ccc(=O)oc2c1CCC(C)(C)O
IC50 (V79): > 100 µM

CCCOc1ccc2ccc(=O)oc2c1CCC(C)C
IC50 (V79): 5.6 µM

CC(C)CCc1c(O)ccc2c1OC(=O)CC2
IC50 (V79): > 100 µM

CCCCOc1ccc2ccc(=O)oc2c1CCC(C)C
IC50 (V79): 16 µM

COc1ccc2ccc(=O)oc2c1CC(O)C(C)(C)O (configuration not stated)
IC50 (V79): > 100 µM

CC(C)CCc1c(O)ccc2ccc(=O)oc12
IC50 (V79): 40 µM

COc1ccc2ccc(=O)oc2c1CC(Br)C(C)(C)Br (configuration not stated)
IC50 (V79): 60 µM

CCCC(=O)c1ccc2ccc(=O)oc2c1CCC(C)C
IC50 (V79): 58 µM

CC(C)CCc1cccc2ccc(=O)oc12
IC50 (V79): 60 µM

CC(=O)c1ccc2ccc(=O)oc2c1CCC(C)C
IC50 (V79): 60 µM

COc1ccc2ccc(=O)oc2c1CC1OC1(C)C (configuration not stated)
IC50 (V79): > 100 µM

CCCCCCCOc1ccc2ccc(=O)oc2c1CCC(C)C
IC50 (V79): 17 µM

COc1ccc2ccc(=O)oc2c1CCC(C)C
IC50 (V79): 58 µM

CCOc1ccc2ccc(=O)oc2c1CCC(C)C
IC50 (V79): 5.8 µM

O=c1ccc2ccccc2o1 [COUMARIN]
IC50 (V79): > 100 µM

COc1ccc2ccc(=O)oc2c1 [HERNIARIN]
IC50 (V79): > 100 µM

COc1ccc2ccc(=O)oc2c1CC=C(C)C [OSTHOLE]
IC50 (KB): 12 µg/mL (≈ 49.1 µM) | IC50 (P388): 3.1 µg/mL (≈ 12.7 µM) | IC50 (MM46): 8.6 µg/mL (≈ 35.2 µM) | IC50 (V79): 57 µM

O=c1ccc2ccc(O)cc2o1 [UMBELLIFERONE]
IC50 (V79): 58 µM
